From patent EP0913089A1, “Synergistic herbicidal composition containing R-imazethapyr and R-imazapyr and method for controlling weeds therewith” (American Cyanamid Company, priority 1997, dated 1999)

Tests used:
Test in all cases: Greenhouse postemergence weed control, visual rating (Example 1)
Parameters in all cases: scale not given here
Conditions in all cases: approx. 3 weeks after treatment
ABUTH = assay type: in vivo, Abutilon theophrasti, Medic.
Method: (§1) In this evaluation, plants are grown in standard greenhouse soil for 10-14 days until they are at the 2-to 4-leaf stage. Said plants are then sprayed with an aqueous solution of the test compounds which contains 0.25% of a non-ionic surfactant and 1% of a 28-0-0 liquid fertilizer. Each treatment is replicated 3 to 4 times. Approximately 3 weeks after treatment visual ratings are made using the rating scale shown below. The data are averaged and shown on Table I. [table] [table]

AMBEL = assay type: in vivo, Ambrosia artemisiifolia, L.
Method: as §1

SETVI = assay type: in vivo, Setaria viridis, (L) Beauv
Method: as §1

CHEAL = assay type: in vivo, Chenopodium album, L.
Method: as §1

## CC(C)C1(C)N=C(c2ncccc2C(=O)O)NC1=O (racemic) [Imazapyr]
ABUTH; Rate 2.016 g/ha
  WEED CONTROL ABUTH: 4.8
ABUTH; Rate 4.00 g/ha
  WEED CONTROL ABUTH: 6.3
ABUTH; Rate 8.00 g/ha
  WEED CONTROL ABUTH: 7.5
ABUTH; Rate 16.00 g/ha
  WEED CONTROL ABUTH: 8.5
ABUTH; Rate 32.00 g/ha
  WEED CONTROL ABUTH: 9.0
ABUTH; Rate 48.00 g/ha
  WEED CONTROL ABUTH: 9.0
ABUTH; Rate 64.00 g/ha
  WEED CONTROL ABUTH: 9.0
AMBEL; Rate 2.016 g/ha
  WEED CONTROL AMBEL: 2.5
AMBEL; Rate 4.00 g/ha
  WEED CONTROL AMBEL: 4.0
AMBEL; Rate 8.00 g/ha
  WEED CONTROL AMBEL: 5.0
AMBEL; Rate 16.00 g/ha
  WEED CONTROL AMBEL: 7.0
AMBEL; Rate 32.00 g/ha
  WEED CONTROL AMBEL: 7.8
AMBEL; Rate 48.00 g/ha
  WEED CONTROL AMBEL: 8.8
AMBEL; Rate 64.00 g/ha
  WEED CONTROL AMBEL: 8.8
SETVI; Rate 2.016 g/ha
  WEED CONTROL SETVI: 5.3
SETVI; Rate 4.00 g/ha
  WEED CONTROL SETVI: 6.8
SETVI; Rate 8.00 g/ha
  WEED CONTROL SETVI: 9.0
SETVI; Rate 16.00 g/ha
  WEED CONTROL SETVI: 9.0
SETVI; Rate 32.00 g/ha
  WEED CONTROL SETVI: 9.0
SETVI; Rate 48.00 g/ha
  WEED CONTROL SETVI: 9.0
SETVI; Rate 64.00 g/ha
  WEED CONTROL SETVI: 9.0
CHEAL; Rate 2.016 g/ha
  WEED CONTROL CHEAL: 6.3
CHEAL; Rate 4.00 g/ha
  WEED CONTROL CHEAL: 8.0
CHEAL; Rate 8.00 g/ha
  WEED CONTROL CHEAL: 8.8
CHEAL; Rate 16.00 g/ha
  WEED CONTROL CHEAL: 9.0
CHEAL; Rate 32.00 g/ha
  WEED CONTROL CHEAL: 9.0
CHEAL; Rate 48.00 g/ha
  WEED CONTROL CHEAL: 9.0
CHEAL; Rate 64.00 g/ha
  WEED CONTROL CHEAL: 9.0

## CCc1cnc(C2=NC(C)(C(C)C)C(=O)N2)c(C(=O)O)c1 (racemic) [Imazethapyr]
ABUTH; Rate 4.00 g/ha
  WEED CONTROL ABUTH: 2.5
ABUTH; Rate 8.00 g/ha
  WEED CONTROL ABUTH: 3.0
ABUTH; Rate 16.00 g/ha
  WEED CONTROL ABUTH: 4.0
ABUTH; Rate 32.00 g/ha
  WEED CONTROL ABUTH: 6.3
ABUTH; Rate 64.00 g/ha
  WEED CONTROL ABUTH: 6.3
ABUTH; Rate 96.00 g/ha
  WEED CONTROL ABUTH: 9.0
ABUTH; Rate 128.00 g/ha
  WEED CONTROL ABUTH: 9.0
AMBEL; Rate 4.00 g/ha
  WEED CONTROL AMBEL: 2.5
AMBEL; Rate 8.00 g/ha
  WEED CONTROL AMBEL: 2.8
AMBEL; Rate 16.00 g/ha
  WEED CONTROL AMBEL: 4.0
AMBEL; Rate 32.00 g/ha
  WEED CONTROL AMBEL: 6.0
AMBEL; Rate 64.00 g/ha
  WEED CONTROL AMBEL: 6.5
AMBEL; Rate 96.00 g/ha
  WEED CONTROL AMBEL: 7.5
AMBEL; Rate 128.00 g/ha
  WEED CONTROL AMBEL: 8.8
SETVI; Rate 4.00 g/ha
  WEED CONTROL SETVI: 3.5
SETVI; Rate 8.00 g/ha
  WEED CONTROL SETVI: 4.5
SETVI; Rate 16.00 g/ha
  WEED CONTROL SETVI: 4.3
SETVI; Rate 32.00 g/ha
  WEED CONTROL SETVI: 6.0
SETVI; Rate 64.00 g/ha
  WEED CONTROL SETVI: 7.5
SETVI; Rate 96.00 g/ha
  WEED CONTROL SETVI: 9.0
SETVI; Rate 128.00 g/ha
  WEED CONTROL SETVI: 9.0
CHEAL; Rate 4.00 g/ha
  WEED CONTROL CHEAL: 2.5
CHEAL; Rate 8.00 g/ha
  WEED CONTROL CHEAL: 2.3
CHEAL; Rate 16.00 g/ha
  WEED CONTROL CHEAL: 3.5
CHEAL; Rate 32.00 g/ha
  WEED CONTROL CHEAL: 7.0
CHEAL; Rate 64.00 g/ha
  WEED CONTROL CHEAL: 8.0
CHEAL; Rate 96.00 g/ha
  WEED CONTROL CHEAL: 9.0
CHEAL; Rate 128.00 g/ha
  WEED CONTROL CHEAL: 9.0

## CCc1cnc(C2=N[C@](C)(C(C)C)C(=O)N2)c(C(=O)O)c1 [R-Imazethapyr, R-imazethapyr]
ABUTH; Rate 2.68 g/ha
  WEED CONTROL ABUTH: 4.8
ABUTH; Rate 5.36 g/ha
  WEED CONTROL ABUTH: 4.8
ABUTH; Rate 10.72 g/ha
  WEED CONTROL ABUTH: 4.8
ABUTH; Rate 21.44 g/ha
  WEED CONTROL ABUTH: 6.8
ABUTH; Rate 42.88 g/ha
  WEED CONTROL ABUTH: 7.0
ABUTH; Rate 64.30 g/ha
  WEED CONTROL ABUTH: 9.0
ABUTH; Rate 85.76 g/ha
  WEED CONTROL ABUTH: 9.0
AMBEL; Rate 2.68 g/ha
  WEED CONTROL AMBEL: 3.8
AMBEL; Rate 5.36 g/ha
  WEED CONTROL AMBEL: 3.5
AMBEL; Rate 10.72 g/ha
  WEED CONTROL AMBEL: 3.0
AMBEL; Rate 21.44 g/ha
  WEED CONTROL AMBEL: 4.8
AMBEL; Rate 42.88 g/ha
  WEED CONTROL AMBEL: 6.5
AMBEL; Rate 64.30 g/ha
  WEED CONTROL AMBEL: 8.8
AMBEL; Rate 85.76 g/ha
  WEED CONTROL AMBEL: 9.0
SETVI; Rate 2.68 g/ha
  WEED CONTROL SETVI: 4.8
SETVI; Rate 5.36 g/ha
  WEED CONTROL SETVI: 4.5
SETVI; Rate 10.72 g/ha
  WEED CONTROL SETVI: 5.5
SETVI; Rate 21.44 g/ha
  WEED CONTROL SETVI: 6.5
SETVI; Rate 42.88 g/ha
  WEED CONTROL SETVI: 7.5
SETVI; Rate 64.30 g/ha
  WEED CONTROL SETVI: 9.0
SETVI; Rate 85.76 g/ha
  WEED CONTROL SETVI: 9.0
CHEAL; Rate 2.68 g/ha
  WEED CONTROL CHEAL: 2.3
CHEAL; Rate 5.36 g/ha
  WEED CONTROL CHEAL: 3.8
CHEAL; Rate 10.72 g/ha
  WEED CONTROL CHEAL: 4.0
CHEAL; Rate 21.44 g/ha
  WEED CONTROL CHEAL: 6.8
CHEAL; Rate 42.88 g/ha
  WEED CONTROL CHEAL: 7.0
CHEAL; Rate 64.30 g/ha
  WEED CONTROL CHEAL: 9.0
CHEAL; Rate 85.76 g/ha
  WEED CONTROL CHEAL: 9.0

## CC(C)[C@@]1(C)N=C(c2ncccc2C(=O)O)NC1=O [R-Imazapyr, R-imazapyr]
ABUTH; Rate 1.34 g/ha
  WEED CONTROL ABUTH: 4.3
ABUTH; Rate 2.68 g/ha
  WEED CONTROL ABUTH: 5.8
ABUTH; Rate 5.36 g/ha
  WEED CONTROL ABUTH: 7.3
ABUTH; Rate 10.72 g/ha
  WEED CONTROL ABUTH: 8.0
ABUTH; Rate 21.44 g/ha
  WEED CONTROL ABUTH: 9.0
ABUTH; Rate 32.16 g/ha
  WEED CONTROL ABUTH: 9.0
ABUTH; Rate 42.88 g/ha
  WEED CONTROL ABUTH: 9.0
AMBEL; Rate 1.34 g/ha
  WEED CONTROL AMBEL: 1.5
AMBEL; Rate 2.68 g/ha
  WEED CONTROL AMBEL: 4.5
AMBEL; Rate 5.36 g/ha
  WEED CONTROL AMBEL: 5.0
AMBEL; Rate 10.72 g/ha
  WEED CONTROL AMBEL: 6.3
AMBEL; Rate 21.44 g/ha
  WEED CONTROL AMBEL: 7.5
AMBEL; Rate 32.16 g/ha
  WEED CONTROL AMBEL: 9.0
AMBEL; Rate 42.88 g/ha
  WEED CONTROL AMBEL: 8.5
SETVI; Rate 1.34 g/ha
  WEED CONTROL SETVI: 6.0
SETVI; Rate 2.68 g/ha
  WEED CONTROL SETVI: 7.5
SETVI; Rate 5.36 g/ha
  WEED CONTROL SETVI: 8.0
SETVI; Rate 10.72 g/ha
  WEED CONTROL SETVI: 9.0
SETVI; Rate 21.44 g/ha
  WEED CONTROL SETVI: 9.0
SETVI; Rate 32.16 g/ha
  WEED CONTROL SETVI: 9.0
SETVI; Rate 42.88 g/ha
  WEED CONTROL SETVI: 9.0
CHEAL; Rate 1.34 g/ha
  WEED CONTROL CHEAL: 7.3
CHEAL; Rate 2.68 g/ha
  WEED CONTROL CHEAL: 7.8
CHEAL; Rate 5.36 g/ha
  WEED CONTROL CHEAL: 8.3
CHEAL; Rate 10.72 g/ha
  WEED CONTROL CHEAL: 9.0
CHEAL; Rate 21.44 g/ha
  WEED CONTROL CHEAL: 9.0
CHEAL; Rate 32.16 g/ha
  WEED CONTROL CHEAL: 9.0
CHEAL; Rate 42.88 g/ha
  WEED CONTROL CHEAL: 9.0
